Experimental findings from US20140235542A1, “MODULAR, BIOACTIVE PEPTIDES FOR BINDING NATIVE BONE AND IMPROVING BONE GRAFT OSTEOINDUCTIVITY” (WISCONSIN ALUMNI RESEARCH FOUNDATION, priority 2013, published 2014) are described below.

In data set [1] the test system is hMSCs. Put plainly: Alkaline phosphatase (ALP) activity in hMSCs. It counts as cell-based, human. As to conditions: peptide bound to HA-coated film, vs untreated substrates. The protocol: hMSCs (Cambrex, Walkersville, Md., passages 5-6) were cultured in mesenchymal stem cell growth medium (MSCGM: Cambrex) consisting of MSC Basal Medium supplemented with 10% fetal bovine serum, L-glutamine, 100 units/ml penicillin, and 0.1 mg/ml streptomycin and grown using culture methods described elsewhere. […] The effects of soluble peptides included in culture medium were evaluated by adding 50 μg of eBGu3 or eBGa3 peptides to hMSC cultures on TCP in 500 μl of medium with or without osteogenic culture supplements. […]
The biological activity of modular peptides was initially assayed by their ability to enhance ALP activity in hMSCs. […] ALP activity was measured at 405 nm, and calculated as the ratio of p-nitrophenol released to total DNA concentration (nmol/min/ng DNA). To determine the amount of total DNA in each well, the cell nuclei were disrupted by addition of the aforementioned lysis buffer followed by centrifugation, and quantified using the CyQUANT Assay Kit (Molecular Probes, Eugene, Oreg.).

Data set [2] concerns hMSCs. Put plainly: Mineralized tissue formation by hMSCs (Alizarin Red-S staining). It counts as cell-based, human. As to conditions: peptide bound to HA-coated film, vs untreated substrates. The protocol: hMSCs (Cambrex, Walkersville, Md., passages 5-6) were cultured in mesenchymal stem cell growth medium (MSCGM: Cambrex) consisting of MSC Basal Medium supplemented with 10% fetal bovine serum, L-glutamine, 100 units/ml penicillin, and 0.1 mg/ml streptomycin and grown using culture methods described elsewhere. 2.5×10^4 hMSCs were seeded onto either tissue culture-treated polystyrene (TCP) or four different types of experimental substrates (1 cm^2) (PLG, HA-coated PLG, eBGu3-treated HA coating, or eBGa3-treated HA coating). hMSCs were allowed to attach to each substrate overnight, then cultured in MSCGM with osteogenic culture supplements (OS) (0.1 μM dexamethasone, 50 μg/ml ascorbic acid, and 10 mM β-glycerophosphate) for 24 days. The effects of soluble peptides included in culture medium were evaluated by adding 50 μg of eBGu3 or eBGa3 peptides to hMSC cultures on TCP in 500 μl of medium with or without osteogenic culture supplements. […]
Characterization of mineralized tissue growth was performed via Alizarin Red-S (ARS) staining at day 20. […] For quantification of staining, 400 μl 10% (v/v) acetic acid was added to each well for 30 minutes with shaking. […] Aliquots (100 μl) of the supernatant were read in triplicate at 405 nm in 96-well plate reader.

Data set [3] is described as follows: Release kinetics of modular peptides from HA-coated film. As to conditions: after 70 days. The protocol: To quantify release kinetics of 5(6) FAM-conjugated modular peptides from HA-coated film, the films were first incubated in solutions containing 250 μM (˜500 μg) of each peptide (eBGu1, eBGu3, eBGa1, or eBGa3) to allow for binding (as described above), then incubated in 500 μl of PBS buffer at 37° C. with constant agitation for 5 days (eBGu1 and eBGu3 peptides) or 10 weeks (eBGa1 and eBGa3 peptides), respectively. Whole buffer solutions were changed at indicated time points and the amount of peptide released from the HA-coated film was determined via fluorescence analysis and comparison with standards containing known amounts of 5(6)-FAM. The fluorescent images of fluorescently-labeled peptides bound to HA-coated films were obtained using an Olympus IX51 fluorescence microscope (Olympus, Center Valley, Pa.).

Data set [4] can be described thus: Binding of rhodamine-labeled peptide to living trabecular bone cores in a bone bioreactor. The settings on record: 100 μg/mL in DMEM circulated, 2-10 hours. Details: species or system bovine. The protocol: The native bone used were harvested from sheep tibia and bovine sternum. Cortical (compact) bone slices were collected from sheep tibia with periosteum removed, and trabecular (cancellous, spongy) bone cores were drilled out from bovine sternum under sterile conditions.
The peptide binding to native bones was tested in three different experiments. In the first experiment, the cortical bone slices were incubated in modular peptide solution (0.5 mL, PBS) with concentrations of 50, 100, 200 and 300 μg/mL. The incubation was continued in a static condition for a period of 0.5, 1, 2 and 3 hours. […] Following each experiment, the bones were rinsed with PBS to remove unbound peptide and their fluorescence images were captured using a Typhoon fluorescence scanner (GE healthcare) or a Nikon Eclipse Ti inverted microscope. To quantify the fluorescence intensity, the images were converted into 8-bit using ImageJ to present the intensity level of each pixel in the range of 0 to 255. […]
mBMP binding to living trabecular bone cores (1 cm in diameter and 0.5 cm in thickness) harvested from bovine sternum was assessed. […] After incubating for various time periods, the binding was measured in terms of fluorescence intensity from rhodamine labeled mBMP. […]

Square brackets hold non-standard residues; d marks the D form. Ends that are not written are not given here. Gla = N[C@@H](CC(C(=O)O)C(=O)O)C(=O)O

Turning to “KIPKASSVPTELSAISTLYLAAAAγEPRRγEVAγEL (KIPKASSVPTELSAISTLYLAAAA[Gla]PRR[Gla]VA[Gla]L-NH2; N-terminus assumed; SMILES CC[C@H](C)[C@H](NC(=O)[C@H](C)NC(=O)[C@H](CO)NC(=O)[C@H](CC(C)C)NC(=O)[C@H](CCC(=O)O)NC(=O)[C@@H](NC(=O)[C@@H]1CCCN1C(=O)[C@@H](NC(=O)[C@H](CO)NC(=O)[C@H](CO)NC(=O)[C@H](C)NC(=O)[C@H](CCCCN)NC(=O)[C@@H]1CCCN1C(=O)[C@@H](NC(=O)[C@@H](N)CCCCN)[C@@H](C)CC)C(C)C)[C@@H](C)O)C(=O)N[C@@H](CO)C(=O)N[C@H](C(=O)N[C@@H](CC(C)C)C(=O)N[C@@H](Cc1ccc(O)cc1)C(=O)N[C@@H](CC(C)C)C(=O)N[C@@H](C)C(=O)N[C@@H](C)C(=O)N[C@@H](C)C(=O)N[C@@H](C)C(=O)N[C@@H](CC(C(=O)O)C(=O)O)C(=O)N1CCC[C@H]1C(=O)N[C@@H](CCCNC(=N)N)C(=O)N[C@@H](CCCNC(=N)N)C(=O)N[C@@H](CC(C(=O)O)C(=O)O)C(=O)N[C@H](C(=O)N[C@@H](C)C(=O)N[C@@H](CC(C(=O)O)C(=O)O)C(=O)N[C@@H](CC(C)C)C(N)=O)C(C)C)[C@@H](C)O) [eBGa3]”, the “effect of immobilized peptide on ALP activity” value with hMSCs [1] is “significantly enhanced”. Further, in the data set with hMSCs [2], the “effect of immobilized peptide on mineralized tissue formation” value is “significantly enhanced”. The “initially bound peptide remaining bound” value in data set [3] is around 85%. Also, in data set [3] (PBS, 37° C.), the “peptide released from HA-coated films” value is 15.7±0.6%. Also, in data set [4], the “incubation time at which binding reached a plateau” value is 4 h.
